The text below walks through data of patent US6492393B1, “Compounds useful as anti-inflammatory agents” (Boehringer Ingelheim Pharmaceuticals, Inc., priority 1999, dated 2002).

The test system of the assay is TNFα in lipopolysaccharide stimulated THP cells. As to the kind of experiment: Inhibition of TNF Production in THP Cells. The format is cell-based. To be noted: LPS (1 μg/mL) stimulated THP.1 cells, 18-24 hr incubation, human TNFα by ELISA. The protocol: Inhibition of TNF Production in THP Cells
The inhibition of cytokine production can be observed by measuring inhibition of TNFα in lipopolysaccharide stimulated THP cells (for example, see W. Prichett et al., 1995, J. Inflammation, 45, 97). All cells and reagents were diluted in RPMI 1640 with phenol red and L-glutamine, supplemented with additional L-glutamine (total: 4 mM), penicillin and streptomycin (50 units/ml each) and fetal bovine serum (FBS, 3%) (GIBCO, all conc. final). Assay was performed under sterile conditions; only test compound preparation was nonsterile. Initial stock solutions were made in DMSO followed by dilution into RPMI 1640 2-fold higher than the desired final assay concentration. Confluent THP.1 cells (2×10^6 cells/mL, final conc.; […], Rockville, Md.) were added to 96 well polypropylene round bottomed culture plates (Costar 3790; sterile) containing 125 μL test compound (2 fold concentrated) or DMSO vehicle (controls, blanks). […] Cell mixture was allowed to preincubate for 30 min, 37° C., 5% CO2 prior to stimulation with lipopolysaccharide (LPS; 1 μg/mL final; Siga L-2630, from E. coli serotype 0111.B4; stored as 1 mg/mL stock in endotoxin screened distilled H2O at −80° C.). Blanks (unstimulated) received H2O vehicle; final incubation volume was 250 μl. Overnight incubation (18-24 hr) proceeded as described above. Assay was terminated by centrifuging plates 5 min, room temperature, 1600 rpm (400×g); supernatants were transferred to clean 96 well plates and stored −80° C. until analyzed for human TNFα by a commercially available ELISA kit (Biosource #KHC3015, Camarillo, Calif.). Data was analyzed by non-linear regression (Hill equation) to generate a dose response curve using SAS Software System (SAS institute, Inc., Cary, N.C.). The calculated IC50 value is the concentration of the test compound that caused a 50% decrease in the maximal TNFα production.

Each structure is given as a SMILES string. pIC50: −log10 of the molar value.

Regarding `Cc1ccc(C(C)(C)C)cc1NC(=O)Nc1ccc(Oc2ccnc(N)c2)c2ccccc12` [1-(5-tert-Butyl-2-methylphenyl)-3-[4-(2-aminopyridin-4-yl-oxy)naphthalen-1-yl]urea], the pIC50 was > 5.00.
The same measure for `CC(C)(C)c1ccc(N2CCOCC2)c(NC(=O)Nc2ccc(OCCN3CCOCC3)c3ccccc23)c1` [1-(5-tert-Butyl-2-morpholin-4-yl-phenyl)-3-[4-(2-morpholin-4-yl-ethoxy)-naphthalen-1-yl]-urea]: > 5.00; for `CC(C)(C)c1cc(Br)c(NCCN2CCOCC2)c(NC(=O)Nc2ccc(OCCN3CCOCC3)c3ccccc23)c1` [1-[3-Bromo-5-tert-butyl-2-(2-morpholin-4-yl-ethylamino)-phenyl]-3-[4-(2-morpholin-4-yl-ethoxy)-naphthalen-1-yl]-urea]: > 5.00; for `COc1ccc(C(C)(C)C)cc1NC(=O)Nc1ccc(OCCN2CCOC(COc3ccccc3)C2)c2ccccc12` (stereo not shown) [1-[5-tert-butyl-2-methoxyphenyl]-3-[4-(2-(2-phenoxymethyl)morpholin-4-yl-ethoxy)-naphthalen-1-yl]-urea]: > 5.00.
For `Cc1ccc(C(C)(C)C)cc1NC(=O)Nc1ccc(OCCN2CCOCC2)c2ccccc12` [1-[5-tert-butyl-2-methylphenyl]-3-[4-(2-morpholin-4-yl-ethoxy)-naphthalen-1-yl]-urea], the pIC50 was > 5.00.
The same measure for `Cc1ccc(C(C)(C)C)cc1NC(=O)Nc1ccc(Oc2cccnc2)c2ccccc12` [1-[5-tert-butyl-2-methylphenyl]-3-[4-(3-pyridinyloxy)-naphthalen-1-yl]-urea]: > 5.00.
The same measure for `Cc1ccc(C(C)(C)C)cc1NC(=O)Nc1ccc(Oc2ccncc2)c2ccccc12` [1-[5-tert-butyl-2-methylphenyl]-3-[4-(4-pyridinyloxy)-naphthalen-1-yl]-urea]: > 5.00.
